The values that follow come from patent US20120082658A1, “Methods for the Treatment of Allergic Diseases” (VentiRx Pharmaceuticals, Inc., priority 2010, published 2012).

One assay concerns the target T1, TLR7 (Homo sapiens, UniProt Q9NYK1).
T1 construct: expressed in transfected cells; host or cells: HEK293
T1 sequence (Q9NYK1 27-1049): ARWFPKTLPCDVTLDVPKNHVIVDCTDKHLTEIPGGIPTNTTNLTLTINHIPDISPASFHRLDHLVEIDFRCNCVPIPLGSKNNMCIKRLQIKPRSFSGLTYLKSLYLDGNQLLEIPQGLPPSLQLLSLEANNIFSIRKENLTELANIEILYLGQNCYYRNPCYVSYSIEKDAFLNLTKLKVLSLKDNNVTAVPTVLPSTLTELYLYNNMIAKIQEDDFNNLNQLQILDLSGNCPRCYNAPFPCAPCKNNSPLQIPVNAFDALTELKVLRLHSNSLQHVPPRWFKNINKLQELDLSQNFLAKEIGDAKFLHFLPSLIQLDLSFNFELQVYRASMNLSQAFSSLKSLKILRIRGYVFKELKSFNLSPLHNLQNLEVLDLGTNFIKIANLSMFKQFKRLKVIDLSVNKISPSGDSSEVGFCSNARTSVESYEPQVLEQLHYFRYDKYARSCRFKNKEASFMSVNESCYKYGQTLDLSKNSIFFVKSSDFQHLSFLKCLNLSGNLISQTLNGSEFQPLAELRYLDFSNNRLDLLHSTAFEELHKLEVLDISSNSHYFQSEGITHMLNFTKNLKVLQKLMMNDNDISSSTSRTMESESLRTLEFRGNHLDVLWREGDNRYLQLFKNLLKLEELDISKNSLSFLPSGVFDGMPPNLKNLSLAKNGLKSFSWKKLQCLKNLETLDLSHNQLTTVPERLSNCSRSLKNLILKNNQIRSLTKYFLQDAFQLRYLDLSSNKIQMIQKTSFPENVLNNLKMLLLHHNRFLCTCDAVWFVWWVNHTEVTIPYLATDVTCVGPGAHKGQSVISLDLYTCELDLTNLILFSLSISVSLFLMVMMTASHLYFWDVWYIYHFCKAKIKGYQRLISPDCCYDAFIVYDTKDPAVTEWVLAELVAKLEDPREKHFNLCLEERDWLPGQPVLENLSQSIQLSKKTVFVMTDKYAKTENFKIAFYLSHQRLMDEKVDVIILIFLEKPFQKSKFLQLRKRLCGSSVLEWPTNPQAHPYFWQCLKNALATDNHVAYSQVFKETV
The experiment in a line: HEK293 cells transfected with human TLR7, NF-κB driven reporter. Format: cell-based. The conditions noted are these: read-out: EC50, activation of TLR7. Here is the method: (§1) FIG. 8 is two graphs depicting the potency and selectivity of VTX-378 for TLR8. The half-maximal effective concentration (EC50) for VTX-378 activation of TLR8 and TLR7 was assessed in peripheral blood mononuclear cells (PBMCs) by the amount of secreted TNFα (A) and by the activity of NF-κB (B) from 15 healthy donors and also in HEK293 cells transfected with various human TLRs.
(§2) Preclinical studies were performed with VTX-378, the active pharmaceutical ingredient in VTX-1463. The specificity of VTX-378 for human TLR8 relative to other TLRs was assessed in transfected Human Embryonic Kidney 293 (HEK293) cells engineered to express individual TLRs (2-9) via transfection, and assessed using an NF-κB driven reporter system. […] The pharmacologic effects of VTX-378 were characterized in vitro using isolated human peripheral blood mononuclear cells (PBMCs).

For the next assay, the target named is T2, TLR2 (Homo sapiens, UniProt O60603).
T2 construct: expressed in transfected cells; host or cells: HEK293
As to the kind of experiment: HEK293 cells transfected with human TLR2, NF-κB driven reporter. The format is cell-based. The following applies: concentration up to 25 uM. Here is the method:
as §1, §2

Another assay concerns the target T3, TLR3 (Homo sapiens, UniProt O15455).
T3 construct: expressed in transfected cells; host or cells: HEK293
T3 sequence (O15455 24-904): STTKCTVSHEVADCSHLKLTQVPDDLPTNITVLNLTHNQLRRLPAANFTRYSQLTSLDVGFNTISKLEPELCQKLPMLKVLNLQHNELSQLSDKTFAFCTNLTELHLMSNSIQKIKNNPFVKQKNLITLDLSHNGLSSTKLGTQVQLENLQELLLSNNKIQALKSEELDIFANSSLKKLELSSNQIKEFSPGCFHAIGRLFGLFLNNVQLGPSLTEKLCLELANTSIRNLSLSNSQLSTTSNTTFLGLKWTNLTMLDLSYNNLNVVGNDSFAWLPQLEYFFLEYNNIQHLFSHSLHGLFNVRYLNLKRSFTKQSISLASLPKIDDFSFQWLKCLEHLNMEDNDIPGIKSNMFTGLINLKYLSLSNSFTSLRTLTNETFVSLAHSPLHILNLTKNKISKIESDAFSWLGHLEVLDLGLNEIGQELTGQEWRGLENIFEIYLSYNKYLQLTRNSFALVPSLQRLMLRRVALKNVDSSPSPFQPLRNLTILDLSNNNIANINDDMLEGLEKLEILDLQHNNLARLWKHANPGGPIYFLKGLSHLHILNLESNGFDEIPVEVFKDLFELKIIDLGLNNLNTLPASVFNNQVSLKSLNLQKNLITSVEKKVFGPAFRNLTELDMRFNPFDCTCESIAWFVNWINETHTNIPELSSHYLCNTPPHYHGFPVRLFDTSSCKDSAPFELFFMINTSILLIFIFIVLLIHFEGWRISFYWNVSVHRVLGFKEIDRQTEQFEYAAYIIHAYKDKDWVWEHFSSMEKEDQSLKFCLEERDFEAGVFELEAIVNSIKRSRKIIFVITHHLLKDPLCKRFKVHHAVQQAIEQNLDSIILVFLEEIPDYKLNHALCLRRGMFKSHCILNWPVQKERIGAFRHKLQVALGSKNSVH
The experiment in a line: HEK293 cells transfected with human TLR3, NF-κB driven reporter. The format is cell-based. The following applies: concentration up to 25 uM. Here is the method:
as §1, §2

A further assay concerns the target T4, TLR4 (Homo sapiens, UniProt O00206+Q9Y6Y9).
T4 construct: expressed in transfected cells; host or cells: HEK293
The experiment in a line: HEK293 cells transfected with human TLR4, NF-κB driven reporter. The format is cell-based. How it is done:
as §1, §2

Another assay concerns the target T5, TLR5 (Homo sapiens, UniProt O60602).
T5 construct: expressed in transfected cells; host or cells: HEK293
The experiment in a line: HEK293 cells transfected with human TLR5, NF-κB driven reporter. The format is cell-based. The conditions noted are these: concentration up to 25 uM. Here is the method: as §1, §2

For a further assay, the system named is human whole blood. The experiment in a line: Co-culture of human whole blood, IL-12 and IL-10 production. Format: cell-based. The source says:
FIG. 9 is two graphs depicting that VTX-378 stimulates production of IL-12 and IL-10.

In assay [1] the test system is ragweed-sensitized beagle dogs. The experiment in a line: Model of allergic rhinitis in ragweed-sensitized beagle dogs (acoustic rhinometry, nasal mediators). Format: in vivo, beagle dog. How it is done: FIG. 1 is four graphs establishing that one day pretreatment with VTX-378 reduces nasal congestion.
The therapeutic activity of VTX-378 was assessed in a well characterized model of allergic rhinitis in ragweed-sensitized beagle dogs (FIGS. 1-7). Acoustic rhinometry (AcR) can be used to measure the direct effect on the nasal mucosa following nasal instillation of ragweed antigen.

The mark [2] stands for this setting: single dose 1000 ug intranasal one day prior to ragweed challenge.

Each structure is given as a SMILES string.

T5 sequence (O60602 21-858): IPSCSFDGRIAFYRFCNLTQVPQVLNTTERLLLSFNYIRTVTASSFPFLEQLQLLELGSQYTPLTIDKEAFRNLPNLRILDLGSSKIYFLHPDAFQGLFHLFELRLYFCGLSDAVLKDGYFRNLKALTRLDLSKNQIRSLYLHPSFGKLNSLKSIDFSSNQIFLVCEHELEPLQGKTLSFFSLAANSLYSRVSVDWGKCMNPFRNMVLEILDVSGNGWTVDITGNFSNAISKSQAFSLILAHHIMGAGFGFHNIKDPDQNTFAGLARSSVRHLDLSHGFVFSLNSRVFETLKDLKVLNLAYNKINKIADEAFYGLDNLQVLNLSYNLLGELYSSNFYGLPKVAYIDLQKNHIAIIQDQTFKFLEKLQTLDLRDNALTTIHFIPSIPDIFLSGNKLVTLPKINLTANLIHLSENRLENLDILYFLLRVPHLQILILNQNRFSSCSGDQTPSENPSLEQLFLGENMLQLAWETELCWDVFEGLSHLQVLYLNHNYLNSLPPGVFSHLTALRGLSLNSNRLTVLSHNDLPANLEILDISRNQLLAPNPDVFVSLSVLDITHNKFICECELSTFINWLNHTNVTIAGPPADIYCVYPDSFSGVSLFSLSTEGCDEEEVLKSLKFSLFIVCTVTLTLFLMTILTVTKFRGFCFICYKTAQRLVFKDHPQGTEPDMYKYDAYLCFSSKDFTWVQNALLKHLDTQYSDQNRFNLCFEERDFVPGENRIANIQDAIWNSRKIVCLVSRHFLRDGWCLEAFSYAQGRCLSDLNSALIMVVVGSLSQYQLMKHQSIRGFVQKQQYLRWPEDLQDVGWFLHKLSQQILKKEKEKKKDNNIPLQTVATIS
T2 sequence (O60603 21-784): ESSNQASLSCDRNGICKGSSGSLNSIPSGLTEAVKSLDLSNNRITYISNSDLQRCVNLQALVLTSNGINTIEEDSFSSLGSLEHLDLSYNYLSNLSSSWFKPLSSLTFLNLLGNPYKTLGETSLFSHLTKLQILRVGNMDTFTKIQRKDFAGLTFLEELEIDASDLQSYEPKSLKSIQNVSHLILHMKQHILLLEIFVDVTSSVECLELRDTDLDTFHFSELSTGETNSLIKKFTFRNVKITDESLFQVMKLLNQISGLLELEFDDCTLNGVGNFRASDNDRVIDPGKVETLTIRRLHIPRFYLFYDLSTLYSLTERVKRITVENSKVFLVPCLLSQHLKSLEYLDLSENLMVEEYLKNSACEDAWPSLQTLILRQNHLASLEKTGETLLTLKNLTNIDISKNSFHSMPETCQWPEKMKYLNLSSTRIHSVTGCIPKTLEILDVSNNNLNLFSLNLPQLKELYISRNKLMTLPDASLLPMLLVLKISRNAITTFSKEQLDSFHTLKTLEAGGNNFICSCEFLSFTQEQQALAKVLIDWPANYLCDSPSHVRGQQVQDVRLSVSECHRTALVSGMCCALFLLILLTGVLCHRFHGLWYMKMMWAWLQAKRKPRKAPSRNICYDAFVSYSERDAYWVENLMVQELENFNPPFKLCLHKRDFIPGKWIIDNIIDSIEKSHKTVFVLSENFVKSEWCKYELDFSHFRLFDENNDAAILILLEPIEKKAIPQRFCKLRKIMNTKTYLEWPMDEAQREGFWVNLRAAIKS
T4 sequence (O00206 24-839): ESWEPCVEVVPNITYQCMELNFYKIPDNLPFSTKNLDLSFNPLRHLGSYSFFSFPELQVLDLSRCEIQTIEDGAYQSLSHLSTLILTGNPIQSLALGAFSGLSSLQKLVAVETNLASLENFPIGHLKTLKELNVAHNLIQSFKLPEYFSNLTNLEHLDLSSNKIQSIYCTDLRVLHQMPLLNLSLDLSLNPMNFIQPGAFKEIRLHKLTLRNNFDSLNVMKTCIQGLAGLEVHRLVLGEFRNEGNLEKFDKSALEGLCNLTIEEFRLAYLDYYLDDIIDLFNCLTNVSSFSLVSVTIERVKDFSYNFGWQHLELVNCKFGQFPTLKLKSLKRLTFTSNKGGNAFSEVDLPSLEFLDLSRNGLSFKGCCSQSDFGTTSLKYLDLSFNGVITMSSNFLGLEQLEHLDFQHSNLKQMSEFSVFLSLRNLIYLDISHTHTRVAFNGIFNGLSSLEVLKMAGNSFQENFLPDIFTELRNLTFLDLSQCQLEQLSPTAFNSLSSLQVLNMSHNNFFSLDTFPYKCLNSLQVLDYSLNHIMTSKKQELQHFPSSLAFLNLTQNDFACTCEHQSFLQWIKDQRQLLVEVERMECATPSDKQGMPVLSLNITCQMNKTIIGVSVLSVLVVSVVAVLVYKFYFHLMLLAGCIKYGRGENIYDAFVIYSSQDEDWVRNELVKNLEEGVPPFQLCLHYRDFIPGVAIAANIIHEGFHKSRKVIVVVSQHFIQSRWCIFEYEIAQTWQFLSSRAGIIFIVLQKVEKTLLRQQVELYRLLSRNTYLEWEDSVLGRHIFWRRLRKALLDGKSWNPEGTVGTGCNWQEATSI
T4 sequence (Q9Y6Y9 17-160 limits assumed): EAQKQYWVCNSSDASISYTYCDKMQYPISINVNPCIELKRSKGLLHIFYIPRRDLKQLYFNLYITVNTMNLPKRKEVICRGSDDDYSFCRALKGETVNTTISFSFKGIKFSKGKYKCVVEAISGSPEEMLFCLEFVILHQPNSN

As for `CCCN(CCC)C(=O)C1=Cc2ccc(-c3ccc(C(=O)N4CCCC4)cc3)cc2N=C(N)C1` [VTX-378], the EC50 at TLR7 was approximately 2000 nM. The “activity on TLR2” value at TLR2 was “no detectable activity”. At TLR3, the “activity on TLR3” value is “no detectable activity”. Also, on TLR4, the “activity on TLR4” value was “minimal to no activity”. Further, the “activity on TLR5” value at TLR5 is on record as “no detectable activity”. In the assay on human whole blood, the “production of IL-10” value is on record as “dose dependent increase” and the “production of IL-12” value is recorded as “dose dependent increase”. For the same molecule, in assay [1] (dose not given), the “production of allergic mediators (nasal histamine, leukotrienes C4/D4/E4, prostaglandin D2, prostaglandin E2)” value is on record as “significantly reduced”. Further, in assay [1] (intranasal 100-1000 mcg), the “allergic response to antigen challenge (acoustic rhinometry)” value was “dose-dependent, statistically significant reduction”. Further, in assay [1] (single dose 100 ug), the “level of nasal histamine” value is on record as “less significant”, the “level of nasal leukotrienes C4/D4/E4” value is reported as “less significant”, the “level of nasal prostaglandin D2” value was “less significant” and the “level of nasal prostaglandin E2” value was “less significant”. Also, the “allergic responses (nasal congestion)” value in assay [1] (single dose 100 ug, 500 ug and 1000 ug intranasal one day prior to ragweed challenge) is “significantly attenuated allergic responses”. In addition, in assay [1] (setting [2]), the “level of nasal histamine” value was “significantly reduced”, the “level of nasal leukotrienes C4/D4/E4” value is reported as “significantly reduced”, the “level of nasal prostaglandin D2” value is “significantly reduced” and the “level of nasal prostaglandin E2” value was “significantly reduced”. The “attenuation of nasal congestion” value in assay [1] (single dose of 1000 mcg intranasal before ragweed challenge) was 56.5%±10.0. Besides, in assay [1] (two 250 ug doses intranasal one day and four-day prior to ragweed challenge), the “allergic responses (nasal congestion)” value is listed as “significantly attenuated allergic responses”. For the same molecule, the “allergic responses (nasal congestion)” value in assay [1] (two 1000 ug doses intranasal, one day and four-day or one day and eight-day prior to ragweed challenge) is given as “significantly attenuated allergic responses”. Besides, the “improvement of nasal congestion” value in assay [1] (two doses of 1000 mcg separated by 4 days) is 65.4%±10.3. Further, the “improvement of nasal congestion” value in assay [1] (two doses of 1000 mcg separated by 7 days) was 71.9%±7.7.

In general, EC50 refers to the concentration needed to bring the measured effect to its halfway point.
